Results as given in publication PMC9149975, “The diaryl-imidazopyridazine anti-plasmodial compound, MMV652103, exhibits anti-breast cancer activity” (EXCLI Journal, 2022).

What was measured:
MCF7 cells [1] = test: ROS-Glo H2O2 assay; assay type: cell-based, human; settings: MCF7, 24 h, ½ IC50 and IC50
Procedure: To determine whether MMV652103 induced oxidative stress in breast cancer cells, the levels of H2O2 were measured using the ROS-Glo™ H2O2 assay kit (G8820, Promega, Wisconsin, USA), according to the manufacturer's instructions. Briefly, cells (2500-4500 cells per well) were seeded in opaque 96 well plates. Cells were treated for 24 h with either vehicle or MMV652103 in a volume of 80 μl per well. After 18 h of incubation, 20 μl H2O2 Substrate Solution was added to each well. After 24 h of incubation 100 μl ROS-Glo™ Detection Solution (prepared by mixing 10 ml Luciferin Detection Reagent, 100 μl D-Cysteine and 100 μl Signal Enhancer Solution) was added to each well and incubated at RT for 20 min. After incubation, the luminescence was read using the GloMax® Explorer Multimode plate reader (Promega, Wisconsin, USA).

T47D cells = test: Western blotting / immunofluorescence, T47D; assay type: cell-based, human
Procedure: (§1) Cells were exposed to MMV652103 or vehicle for 24 and 48 h. Cell lysates were prepared, and western blotting performed as previously described (Abrahams et al., 2008[1]). Primary antibodies were: PARP1/2 (sc-7150, 1:1000), p53 (sc-126, 1:1000), p21 (sc-756, 1:1000), cyclin B1 (H-433) (sc-752, 1:500) from Santa Cruz (California, USA), phospho-H2AX (#2577, 1:1000), phospho-p38 MAP Kinase (#9211, 1:1000), LC3 (#2775, 1:1000), caspase-7 (#9492, 1:1000), caspase-8 (#9746, 1:1000), caspase-9 (#9502S, 1:1000), from Cell Signaling (Boston, MA, USA), PUMA (ab9643, 1:1000) (AbCam, Cambridge, MA, USA) and p38 (M0800, 1:5000) from Sigma (St. Louis, MO, USA). Total p38 was used as a loading control because although its activity is modulated by phosphorylation, its total levels remain unaltered in response to stimuli (Raingeaud et al., 1995[68]). Densitometry readings were obtained using ImageJ v1.50i58 and protein expression levels were represented as a ratio of protein of interest/p38 loading control normalized to the vehicle treated control sample where appropriate. All blots are representative of at least three independent experiments.
(§2) Cells on glass coverslips were treated with either MMV652103 or vehicle for 24 and 48 h and processed for immunofluorescence with antibodies against phospho H2A.X (#2577) (1:500) or LC3B (#2775) (1:200) (Cell Signaling Technology) as previously described (Bleloch et al., 2019[8]). Cells were imaged using confocal microscopy (Carl Zeiss LSM 880 with Fast Airyscan module confocal (Oberkochen, Germany)). Multiple z layers were acquired with […] step width. Images were processed using ZEN 2012 imaging software (Carl Zeiss) and maximum intensity projections were generated. For quantification, mean fluorescence was measured from at least 20 fields of view per treatment condition and pooled from three independent replicates.

PIK3CA/ PIK3R1 = molecular target: T1, PIK3CA/ PIK3R1 (Homo sapiens, UniProt P42336); test: ADP-Glo lipid kinase assay, PIK3CA/PIK3R1; assay type: biochemical; settings: 10 µM compound
T1 construct: purchased Carna Biosciences Inc; Invitrogen Corporation

PIK3CG = molecular target: T2, PIK3CG (Homo sapiens, UniProt P48736); test: ADP-Glo lipid kinase assay, PIK3CG; assay type: biochemical; settings: 10 µM compound
T2 construct: purchased Carna Biosciences Inc; Invitrogen Corporation

MCF7 cells [2] = test: Scratch motility assay, MCF7; assay type: cell-based, human; settings: IC50 and 2 x IC50; 3, 6, 9 h
Procedure: Cells were grown to 100 % confluence in 12-well tissue culture plates and the following day a sterile 2 µl pipette tip was used to make a vertical scratch in the cell monolayer of each well and the cells treated with mitomycin C (M4287; Sigma Aldrich) at a final concentration of 10 μg/ml to inhibit proliferation. Cells were subsequently treated with MMV652103 or vehicle and imaged at 0, 3, 6 and 9 h post wound formation and ImageJ v1.50i software was used to calculate the area of the scratch (Schneider et al., 2012[73]). The total areas migrated was determined by subtracting the area for a specific time point from the area measured at 0 h.

MCF7 tumors = test: Chick embryo CAM xenograft: tumor weight and metastasis; assay type: in vivo; settings: every 48 h E10-E16, weighed E18
Procedure: All studies and procedures were conducted with prior approval of the Animal Ethics Committee of the University of Cape Town (FHS AEC REF NO:016/025) in accordance with the South African National Standard (SANS 10386:008) for the Care and Use of Animals for Scientific Purposes (SABS, 2015[71]), and guidelines from the Department of Health (2015[21]). Fertilized White Leghorn eggs were incubated at 37.5 °C with 50 % relative humidity for 9 days. At stage E9, the chorioallantoic membrane (CAM) was dropped by drilling a small hole through the eggshell into the air sac and a 1 cm^2 window was cut in the eggshell above the CAM. Cultured MCF7 cells were detached with trypsin, washed with complete medium and suspended in PBS. An inoculum of MCF7 cells was grafted onto the CAM of each E9 egg (21 eggs were used for each condition) and at E10, tumors were detectable. MCF7 tumors were treated every 48 h (E10, E12, E14, E16) by dropping 100 μl of vehicle (0.25 % DMSO in PBS), a reference compound (Paclitaxel), or MMV652103, onto the tumour. At E18 the upper portion of the CAM was removed, transferred to PBS and the tumors cut away from normal CAM tissue and weighed. A one-way ANOVA analysis with post-tests was done. In parallel, a 1 cm^2 portion of the lower CAM was collected to evaluate the number of metastatic cells. The relative amount of metastasis was calculated as follows: Tumor cells were grafted onto the upper chorioallantoic membrane (CAM) and during metastasis the cells invade the epithelium and basement membrane of the upper CAM and move through connective tissue into the vasculature into the lower CAM. The cells in the lower CAM are then harvested and genomic DNA is extracted and analyzed by qPCR with specific primers for Alu sequences which are only found in higher primates i.e. it allows for the distinction between human tumor cells and the host chick cells. Statistical analysis was directly performed on data from the Bio-Rad CFX Manager 3.1 software.

MCF7 cells [3] = test: Western blotting / immunofluorescence, MCF7; assay type: cell-based, human
Procedure: as §1, §2

T2 sequence (P48736 whole entry): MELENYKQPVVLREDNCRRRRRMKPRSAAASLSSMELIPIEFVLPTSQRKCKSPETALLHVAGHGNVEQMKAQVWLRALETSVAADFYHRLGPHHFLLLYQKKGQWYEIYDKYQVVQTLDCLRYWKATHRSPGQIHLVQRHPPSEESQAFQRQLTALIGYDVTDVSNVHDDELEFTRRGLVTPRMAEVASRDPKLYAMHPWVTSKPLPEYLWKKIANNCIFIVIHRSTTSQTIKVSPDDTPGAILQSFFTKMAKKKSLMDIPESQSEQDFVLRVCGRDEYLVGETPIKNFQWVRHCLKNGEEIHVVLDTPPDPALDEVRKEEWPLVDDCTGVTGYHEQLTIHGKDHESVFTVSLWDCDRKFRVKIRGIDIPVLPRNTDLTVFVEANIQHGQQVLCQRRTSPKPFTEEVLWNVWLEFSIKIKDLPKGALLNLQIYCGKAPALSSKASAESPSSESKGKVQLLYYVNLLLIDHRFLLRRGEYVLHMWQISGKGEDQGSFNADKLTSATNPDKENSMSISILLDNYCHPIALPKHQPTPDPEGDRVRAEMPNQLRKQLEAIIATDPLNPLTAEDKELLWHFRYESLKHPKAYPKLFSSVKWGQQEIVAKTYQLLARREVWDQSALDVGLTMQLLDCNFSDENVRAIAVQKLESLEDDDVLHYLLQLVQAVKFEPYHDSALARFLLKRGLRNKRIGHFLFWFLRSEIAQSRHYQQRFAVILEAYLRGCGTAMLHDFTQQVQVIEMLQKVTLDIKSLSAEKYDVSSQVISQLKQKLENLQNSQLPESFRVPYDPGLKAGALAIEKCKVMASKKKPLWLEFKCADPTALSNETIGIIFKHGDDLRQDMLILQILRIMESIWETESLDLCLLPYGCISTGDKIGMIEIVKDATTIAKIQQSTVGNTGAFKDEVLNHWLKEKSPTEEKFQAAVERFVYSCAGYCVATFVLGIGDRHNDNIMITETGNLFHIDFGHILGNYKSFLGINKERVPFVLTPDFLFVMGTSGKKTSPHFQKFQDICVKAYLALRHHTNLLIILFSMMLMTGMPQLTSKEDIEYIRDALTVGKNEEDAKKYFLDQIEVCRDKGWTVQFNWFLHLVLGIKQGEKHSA
T1 sequence (P42336 whole entry): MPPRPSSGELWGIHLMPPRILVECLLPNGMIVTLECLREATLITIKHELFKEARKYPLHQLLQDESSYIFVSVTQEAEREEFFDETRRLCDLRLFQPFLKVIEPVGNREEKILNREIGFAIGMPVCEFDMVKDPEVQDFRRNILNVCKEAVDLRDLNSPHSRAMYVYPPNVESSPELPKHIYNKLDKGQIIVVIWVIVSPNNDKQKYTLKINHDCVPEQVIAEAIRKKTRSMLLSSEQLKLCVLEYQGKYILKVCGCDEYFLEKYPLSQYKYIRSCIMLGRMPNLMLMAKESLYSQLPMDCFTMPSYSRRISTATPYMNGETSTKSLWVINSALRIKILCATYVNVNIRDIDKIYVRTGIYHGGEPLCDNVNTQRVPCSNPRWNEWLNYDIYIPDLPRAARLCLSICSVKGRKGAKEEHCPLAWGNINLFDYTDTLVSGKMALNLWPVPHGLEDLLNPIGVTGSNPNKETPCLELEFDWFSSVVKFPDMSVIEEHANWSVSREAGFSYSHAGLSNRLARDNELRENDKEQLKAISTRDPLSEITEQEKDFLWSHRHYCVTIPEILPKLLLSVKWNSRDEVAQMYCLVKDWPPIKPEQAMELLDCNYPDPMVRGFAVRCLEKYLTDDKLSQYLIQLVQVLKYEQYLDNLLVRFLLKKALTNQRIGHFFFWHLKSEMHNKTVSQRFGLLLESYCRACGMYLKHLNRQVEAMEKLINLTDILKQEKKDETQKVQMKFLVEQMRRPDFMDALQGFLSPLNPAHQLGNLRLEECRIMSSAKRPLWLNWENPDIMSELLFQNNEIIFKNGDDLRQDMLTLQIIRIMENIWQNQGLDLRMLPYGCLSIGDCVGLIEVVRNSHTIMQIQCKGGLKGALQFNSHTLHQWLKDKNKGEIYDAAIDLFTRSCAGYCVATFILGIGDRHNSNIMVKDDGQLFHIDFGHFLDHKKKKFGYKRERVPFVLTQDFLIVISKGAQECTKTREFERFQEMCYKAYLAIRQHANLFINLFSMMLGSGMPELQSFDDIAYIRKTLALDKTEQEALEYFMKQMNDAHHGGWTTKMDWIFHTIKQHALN
T1 sequence (P27986 whole entry partner): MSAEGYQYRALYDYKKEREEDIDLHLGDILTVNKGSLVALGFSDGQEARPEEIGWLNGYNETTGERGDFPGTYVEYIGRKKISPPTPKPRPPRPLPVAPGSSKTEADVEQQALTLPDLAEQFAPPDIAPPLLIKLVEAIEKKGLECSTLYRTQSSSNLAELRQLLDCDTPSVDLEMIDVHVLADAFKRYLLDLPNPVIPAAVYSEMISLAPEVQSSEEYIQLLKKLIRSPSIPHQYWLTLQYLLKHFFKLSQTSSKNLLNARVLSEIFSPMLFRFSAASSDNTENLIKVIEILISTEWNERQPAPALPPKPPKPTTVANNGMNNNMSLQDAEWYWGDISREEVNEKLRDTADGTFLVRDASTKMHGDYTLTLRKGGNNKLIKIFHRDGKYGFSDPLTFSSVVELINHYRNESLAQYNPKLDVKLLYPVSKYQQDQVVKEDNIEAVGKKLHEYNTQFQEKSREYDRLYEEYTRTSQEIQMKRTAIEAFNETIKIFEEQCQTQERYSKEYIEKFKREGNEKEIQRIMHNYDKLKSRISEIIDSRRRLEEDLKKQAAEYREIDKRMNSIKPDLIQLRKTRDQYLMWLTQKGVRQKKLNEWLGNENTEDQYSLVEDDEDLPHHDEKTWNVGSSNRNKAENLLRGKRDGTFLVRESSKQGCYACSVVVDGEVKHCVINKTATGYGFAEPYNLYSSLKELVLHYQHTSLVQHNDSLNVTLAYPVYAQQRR

For CS(=O)(=O)c1ccc(-c2cnc3ccc(-c4cccc(S(C)(=O)=O)c4)nn23)cc1 [MMV652103], the “levels of H2O2” value (MCF7 cells [1]) was “significant increase”, the “levels of phosphorylated p38, T47D” value (T47D cells; western blot) was “increased” and the “p21 levels, T47D” value (T47D cells; western blot) was “increased”. For the same compound, the “levels of p53, T47D” value (T47D cells; western blot, mutant non-functional p53) was “no effect”, the “levels of γH2AX, T47D” value (T47D cells; ½ IC50 and IC50, 24 and 48 h) was “dose- and time-dependent increase” and the remaining activity at 10 µM (PIK3CA/ PIK3R1) was 3%. For the same compound, the remaining activity at 10 µM (PIK3CG) was 2%, the MCF7 cell migration (MCF7 cells [2]) was “significant reduction” and the tumor weight reduction (MCF7 tumors; 4.4 μM) was 34.89%. The tumor weight reduction (MCF7 tumors; 22 μM) was 41.71%, the “LC3 to LC3II conversion” value (MCF7 cells [3]; western blot) was “led to the conversion of LC3 to LC3II” and the “cyclin A and cyclin B1 levels” value (MCF7 cells [3]; western blot) was “reduced”. The “levels of p53, MCF7” value (MCF7 cells [3]; western blot) was “dose- and time-dependent increase”, the “levels of phosphorylated p38, MCF7” value (MCF7 cells [3]; western blot) was “increased” and the “p21 levels, MCF7” value (MCF7 cells [3]; western blot) was “increased”. The “levels of γH2AX, MCF7” value (MCF7 cells [3]; ½ IC50 and IC50, 24 and 48 h) was “dose- and time-dependent increase” and the “levels of PUMA, cleaved caspase-8, caspase-9, caspase-7 and PARP” value (MCF7 cells [3]; ½ IC50 and IC50, western blot) was “increased levels”.
